# Measurements from patent US8034795B2, “Taxanes covalently bounded to hyaluronic acid or hyaluronic acid derivatives” (Fidia Farmaceutici S.p.A., priority 2002, dated 2011).
# Experiments:
# [1] = system: human ovary adenocarcinoma cells, OVCAR-3 cells; assay: Survival of nude mice after intraperitoneal implant of OVCAR-3 neoplastic cells; type: in vivo, immunodepressed nude mice (Athymic CD-1); conditions: 3 intraperitoneal doses (days 6, 13, 20): 20 mg/kg Taxol or 125 mg/kg HYTAD; 5 animals per group
# Excerpt: For this experiment, we used human ovary adenocarcinoma cells, OVCAR-3 cells, in immunodepressed nude mice belonging to the Athymic CD-1 species.
# Each mouse was inoculated by the intraperitoneal route with 5×10^6 cancer cells.
# The molecular weight of the HA used for synthesis of this new drug was 200,000 Da (see Example 7 for details of its preparation). Five animals were used for this drug too.
# Treated animals: 10 animals were first inoculated with OVCAR-3 cells.
# The survival curve was calculated from the date of intervention to the 92nd day after inoculation of the cancer cells into the peritoneum.
# [2] = intravenous infusion of paclitaxel-Cremophor EL in spite of pre-medication; cited from earlier work
# [3] = system: SKBR-3 human breast cancer cell line; assay: In vitro cytotoxicity, MTT test, SKBR-3; type: cell-based; conditions: SK-BR-3, 72 h, read-out: IC50 (concentration of drug necessary to inhibit cell growth by 50%)
# Protocol: (§1) Four cell lines of human breast cancer were used.
# (§2) 1) the test cell line is plated at a concentration of 3,000 cells per well, on a flat-bottomed, 96-well plate;
# (§3) 2) 24 hours later, the cells are supplemented with the test solutions suitably diluted in culture medium;
# (§4) This is possible because mitochondrial dehydrogenase is able to reduce the tetrazolium salts (yellow) into blue formazan crystals. The greater or lesser intensity of colour is assessed by spectrophotometry (Dezinot, F. et al., J. Immunol. Methods, 1986, 22 (89): 271-277).
# [4] = system: MCF-7 human breast cancer cell line; assay: In vitro cytotoxicity, MTT test, MCF-7; type: cell-based; conditions: MCF7, 72 h, read-out: IC50 (concentration of drug necessary to inhibit cell growth by 50%)
# Protocol: as §1, §2, §3, §4
# [5] = system: MDA-MB-231 human breast cancer cell line; assay: In vitro cytotoxicity, MTT test, MDA-MB-231; type: cell-based; conditions: MDA-MB-231, 72 h, read-out: IC50 (concentration of drug necessary to inhibit cell growth by 50%)
# Protocol: as §1, §2, §3, §4
smiles,measurement,setting,value
"CC(=O)O[C@H]1C(=O)[C@@]2(C)[C@H]([C@H](OC(=O)c3ccccc3)[C@]3(O)C[C@H](OC(=O)[C@H](O)[C@@H](NC(=O)c4ccccc4)c4ccccc4)C(C)=C1C3(C)C)[C@]1(OC(C)=O)CO[C@@H]1C[C@@H]2O [Taxol ®, paclitaxel]",animals that had died on the 92nd day after intervention,[1],none
same,patients who experience more or less severe adverse reactions,[2],up to 40%
same,IC50,[3],0.23 nM
same,IC50,[4],3.5 nM
same,IC50,[5],0.35 nM
